Source: article PMC7811009, “Oxytocin modulates local topography of human functional connectome in healthy men at rest” (Communications Biology, 2021)

Columns and labels:
[1] = system: human functional connectome at rest; assay: Resting-state BOLD-fMRI: network edges (microscale), FDR and Network Based Statistics; type: in vivo
From the text: We used the CONN functional connectivity toolbox[97] to generate brain-wide functional connectivity matrices for each subject/session. […] The default atlas of the CONN toolbox includes 132 non-overlapping ROIs spanning cortical and subcortical areas and the cerebellum using a combination of the cortical and subcortical areas from the FSL Harvard-Oxford atlas and of the cerebellar areas of the Automatic Anatomical Labelling atlas (Supplementary data 1 for a detailed description). […] Finally, we normalized our correlation measures to z-scores using the Fisher’s r-z transform per subject/session.
We did so by examining treatment-related changes in mean connectivity and global efficiency of the whole-brain network (macroscale), graph properties of regional connectivity at the node level (mesoscale) and individual connections between pairs of nodes (microscale). These analyses were performed using repeated measures one-way analysis of variance, implemented in Matlab 2016. When a significant effect was found, we followed up with post-hoc paired t-tests between each pair of the four treatment conditions, using FDR correction for multiple testing.
Microscale. We performed two different analyses to investigate treatment-related changes on each individual edge of the connectivity matrices. […]

[2] = system: human functional connectome at rest; assay: Resting-state BOLD-fMRI, graph theory: global efficiency (macroscale); 40 IU intranasal (spray/nebuliser) or 10 IU intravenous, about 57 min post-dosing, 16 healthy men; type: in vivo; conditions: repeated measures one-way ANOVA, F (1.932, 28.980) = 0.568, p = 0.567
Method: Each experimental session began with the treatment administration protocol that lasted about 22 min in total (Fig. 8, lower panel). After drug administration, participants were guided to the MRI scanner, where eight pulsed continuous arterial spin labelling scans (each lasting approx. eight minutes) were acquired, spanning 15–104 min post-dosing (data reported elsewhere[11]). The 8-min resting state BOLD-fMRI scan reported herein was obtained at about 57 ± 3.38 min post-dosing. Participants were instructed to lie still and maintain their gaze on a centrally placed fixation cross during scanning. We assessed participants’ levels of alertness (anchors: alert-drowsy) and excitement (anchors: excited-calm) using visual analogue scales (0–100) at three different time-points during the scanning session to evaluate subjective drug effects across time (data reported elsewhere[11]).
MRI data were acquired on a 3 T MR750 system (GE Healthcare, Waukesha, Wisconsin) with a 32-channel head coil. Functional data was acquired using a shot multi-echo echo planar imaging (EPI) sequence (TR = 2500 ms, TE’s = 12, 28, 44 and 60 ms, FA = 80°, FOV = 240 × 240 mm^2, Matrix = 64 × 64, Slice thickness = 3 mm, 32 continuous descending axial slices, resolution = 3.75 × 3.75 × 3 mm). […] The resting state fMRI scan lasted 8 min 10 s, with collection of a total of 192 volumes for each echo. […]

## CC[C@H](C)[C@@H]1NC(=O)[C@H](Cc2ccc(O)cc2)NC(=O)[C@@H](N)CSSC[C@@H](C(=O)N2CCC[C@H]2C(=O)N[C@@H](CC(C)C)C(=O)NCC(N)=O)NC(=O)[C@H](CC(N)=O)NC(=O)[C@H](CCC(N)=O)NC1=O [oxytocin]
[1]; FDR correction for the number of edges
  Connectivity of individual edges across the four treatment conditions: did not find any individual edge where the four treatment conditions differed in connectivity
[1]; NBS, irrespective of the primary threshold used
  Connectivity of subnetworks across the four treatment conditions: did not identify any subnetwork where the four treatment conditions differed on connectivity
[2]
  Differences in global efficiency across the four treatment conditions: no significant differences
